{
  "source": "BindingDB's records for PubMed 9223589",
  "about": "(University of Tours, 1997)",
  "key": {"[1]": {"target": "Sodium-dependent dopamine transporter (Rattus norvegicus, UniProt P23977)", "sequence (P23977 whole entry)": "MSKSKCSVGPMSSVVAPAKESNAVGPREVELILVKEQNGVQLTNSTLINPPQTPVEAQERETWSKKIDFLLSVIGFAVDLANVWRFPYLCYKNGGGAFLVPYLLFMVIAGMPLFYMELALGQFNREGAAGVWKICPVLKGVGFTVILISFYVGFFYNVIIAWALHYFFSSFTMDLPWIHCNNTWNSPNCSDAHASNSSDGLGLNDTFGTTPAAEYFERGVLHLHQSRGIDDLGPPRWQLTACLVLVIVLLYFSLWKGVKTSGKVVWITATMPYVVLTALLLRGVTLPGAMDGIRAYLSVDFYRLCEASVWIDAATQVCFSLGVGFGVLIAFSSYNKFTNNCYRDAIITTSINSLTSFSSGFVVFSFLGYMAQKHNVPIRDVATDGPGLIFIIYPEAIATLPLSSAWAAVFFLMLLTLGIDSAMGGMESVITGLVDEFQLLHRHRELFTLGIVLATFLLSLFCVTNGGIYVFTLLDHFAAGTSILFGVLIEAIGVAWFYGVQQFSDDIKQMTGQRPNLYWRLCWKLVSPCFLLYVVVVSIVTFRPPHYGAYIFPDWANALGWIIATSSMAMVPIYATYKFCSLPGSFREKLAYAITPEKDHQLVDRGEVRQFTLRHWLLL"}, "[2]": {"target": "Norepinephrine transporter (Rattus norvegicus, UniProt Q9JIA2)"}, "[3]": {"target": "Sodium-dependent serotonin transporter (Rattus norvegicus, UniProt P31652)", "sequence (P31652 whole entry)": "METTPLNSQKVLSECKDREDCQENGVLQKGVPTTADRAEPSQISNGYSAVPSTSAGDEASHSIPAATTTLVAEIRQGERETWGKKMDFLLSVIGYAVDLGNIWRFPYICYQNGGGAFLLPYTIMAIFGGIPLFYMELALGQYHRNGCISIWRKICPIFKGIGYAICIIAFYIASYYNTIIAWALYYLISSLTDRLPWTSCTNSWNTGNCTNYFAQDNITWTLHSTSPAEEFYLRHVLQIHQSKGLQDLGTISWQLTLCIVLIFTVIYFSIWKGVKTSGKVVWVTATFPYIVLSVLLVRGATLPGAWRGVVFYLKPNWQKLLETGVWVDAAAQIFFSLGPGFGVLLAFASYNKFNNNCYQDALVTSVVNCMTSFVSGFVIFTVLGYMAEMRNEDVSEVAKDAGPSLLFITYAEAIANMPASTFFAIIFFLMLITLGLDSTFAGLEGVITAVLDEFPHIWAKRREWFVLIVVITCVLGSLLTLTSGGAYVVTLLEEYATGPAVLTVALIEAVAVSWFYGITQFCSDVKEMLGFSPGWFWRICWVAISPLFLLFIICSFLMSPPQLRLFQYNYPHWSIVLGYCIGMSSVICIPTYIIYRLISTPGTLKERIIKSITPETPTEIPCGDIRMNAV"}},
  "note": "“And” between values parts separate entries of the source, which are not always exact repeats. Equal entries are not always repeated.",
  "data": [
    {"smiles": "O[C@]1(c2ccc(Cl)cc2)c2ccccc2C2=NCCN21", "note": "[Mazanor]", "values": [
      {"measurement": "Ki", "setting": "[1]", "result": "50 nM and 12 nM"}
    ]},
    {"smiles": "COC(=O)[C@H]1C(c2ccc(Cl)c(Cl)c2)CC2CCC1N2C/C=C/I", "note": "(stereo partly drawn) [(2S,8R)-3-(3,4-Dichloro-phenyl)-8-((E)-3-iodo-allyl)-8-aza-bicyclo[3.2.1]octane-2-carboxylic acid methyl ester]", "values": [
      {"measurement": "Ki", "setting": "[2]", "result": 500, "unit": "nM"}
    ]},
    {"smiles": "COC(=O)[C@H]1[C@@H](c2ccc(I)cc2)C[C@@H]2CC[C@H]1N2C", "note": "[RTI 55, (exo,exo)-isomer, Iodine (125) labeled]", "values": [
      {"measurement": "Ki", "setting": "[2]", "result": 80, "unit": "nM"},
      {"measurement": "Ki", "setting": "[3]", "result": 3.1, "unit": "nM"},
      {"measurement": "Ki", "setting": "[1]", "result": 27.5, "unit": "nM"}
    ]}
  ]
}
